For this experiment, the target named is HCV RNA-dependent RNA polymerase NS5B (Δ21) (Hepatitis C virus genotype 1b, UniProt P26663). Briefly: Assay for HCV RNA-dependent RNA polymerase activity (SPA, [3H]-GTP incorporation). Format: biochemical. The protocol:
Assay for HCV RNA-dependent RNA Polymerase Activity
Inhibitory activity of the present compounds against HCV RNA-dependent RNA polymerase was assayed according to the methods disclosed in U.S. Patent Application U.S.2004/038993, content of which is incorporated herein by reference; and those described in Ferrari, E.; Wright-Minogue, J.; Fang, J. W. S.; Baroudy, B. M.; Lau, J. Y. N.; Hong, Z. J. Virol. 1999, 73, 1649.
Briefly, 50 μl reactions containing 20 mM HEPES (pH 7.3), 7.5 mM DTT, 20 units/ml RNasIN, 0.5 ug/ml biotinylated oligoG12, 5 μg/ml polyC, 5 μM GTP, 20 μCi/ml [^3H]-GTP, 10 mM MgCl2, 60 mM NaCl, 100 μg/ml BSA, and 50 nM NS5B (Δ21) were incubated at room temperature for three hours in 96-well plates with or without test compounds. Assay was terminated by the addition of 50 μl 10 mg/ml streptavidin-coated SPA beads supplemented with 100 mM EDTA, and the incorporation of labeled GTP determined by a TopCount Scintillation Counter. IC50 values were calculated from single experiments using 11 serial 2-fold dilutions (0.05–50 μM), and data were considered reliable only when the IC50 value of a positive internal control was within standard deviation range.
Sequence of HCV RNA-dependent RNA polymerase NS5B (Δ21) (P26663 2420-2989, stated change not applied): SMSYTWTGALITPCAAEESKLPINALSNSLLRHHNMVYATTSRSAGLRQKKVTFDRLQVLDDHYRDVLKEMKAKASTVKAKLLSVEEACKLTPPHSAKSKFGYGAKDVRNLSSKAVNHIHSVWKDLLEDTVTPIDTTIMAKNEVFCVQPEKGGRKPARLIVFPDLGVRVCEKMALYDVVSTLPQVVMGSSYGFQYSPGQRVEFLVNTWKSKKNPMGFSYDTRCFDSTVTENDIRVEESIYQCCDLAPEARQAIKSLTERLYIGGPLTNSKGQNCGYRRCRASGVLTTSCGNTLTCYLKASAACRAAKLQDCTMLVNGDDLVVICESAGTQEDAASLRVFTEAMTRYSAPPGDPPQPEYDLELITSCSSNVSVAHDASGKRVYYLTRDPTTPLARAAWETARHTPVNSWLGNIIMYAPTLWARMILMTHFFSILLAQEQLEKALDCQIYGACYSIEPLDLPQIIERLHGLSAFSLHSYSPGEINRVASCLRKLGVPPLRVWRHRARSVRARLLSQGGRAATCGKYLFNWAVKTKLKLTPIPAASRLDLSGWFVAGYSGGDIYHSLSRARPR
Turning to `O=C(Cn1nc(C(=O)O)cc1OCc1ccc(F)cc1Cl)N[C@H]1CCCC[C@@H]1OCc1ccccc1` [Compound 17], the concentration for half-maximal inhibition (IC50) (as a rule, the concentration that inhibits the measured activity by half) was 9.5 µM.

`O=C(Cn1nc(C(=O)O)cc1OCc1cccc(F)c1)N[C@H]1CCCC[C@@H]1OCc1ccccc1` [Compound 28]: the IC50 was greater than 12.5 µM.

On to `O=C(Cn1nc(C(=O)O)cc1OCc1cc(F)ccc1F)N[C@H]1CCCC[C@@H]1OCc1ccccc1` [Compound 46], for which the IC50 is greater than 12.5 µM.

Take `O=C(Cn1nc(C(=O)O)cc1OCc1ccccc1F)N[C@H]1CCCC[C@@H]1OCc1ccccc1` [Compound 14]: the IC50 is greater than 12.5 µM.

`O=C(Cn1nc(C(=O)O)cc1OCc1cccc(C(=O)O)c1)N[C@H]1CCCC[C@@H]1OCc1ccccc1` [Compound 48] had an IC50 greater than 50 µM.

With `O=C(Cn1nc(C(=O)O)cc1OCc1cc(C(F)(F)F)ccc1F)N[C@H]1CCCC[C@@H]1OCc1ccccc1` [Compound 34], it took 6.1 µM to reach half-maximal inhibition (IC50).

In turn, `O=C(Cn1nc(C(=O)O)cc1OCc1ccccc1C(F)(F)F)N[C@H]1CCCC[C@@H]1OCc1ccccc1` [Compound 20] yielded an IC50 of 2.9 µM.

The compound `O=C(Cn1nc(C(=O)O)cc1OCc1cc(F)ccc1C(F)(F)F)N[C@H]1CCCC[C@@H]1OCc1ccccc1` [Compound 40] gave an IC50 of 3.1 µM.

For `Cc1cc(COc2cc(C(=O)O)nn2CC(=O)N[C@H]2CCCC[C@@H]2OCc2ccccc2)ccc1F` [Compound 43], it took 3.1 µM to reach half-maximal inhibition (IC50).

In turn, `O=C(Cn1nc(C(=O)O)cc1OCc1ccccc1-c1cccc(Cl)c1)N[C@H]1CCCC[C@@H]1OCc1ccccc1` [Compound 53] registered an IC50 of 0.78 µM.

`O=C(Cn1nc(C(=O)O)cc1OCc1ccc(F)cc1)N[C@H]1CCCC[C@@H]1OCc1ccccc1` [Compound 21] had an IC50 of 13 µM.

`CCOc1ccccc1COc1cc(C(=O)O)nn1CC(=O)Nc1ccccc1OCc1ccccc1` [Compound 6] yielded an IC50 of 40 µM.

For `O=C(Cn1nc(C(=O)O)cc1OCc1ccc(C(F)(F)F)cc1F)N[C@H]1CCCC[C@@H]1OCc1ccccc1` [Compound 37], half-maximal inhibition (IC50) required 6.2 µM.

`O=C(Cn1nc(C(=O)O)cc1OCc1ccc(F)cc1C(F)(F)F)N[C@H]1CCCC[C@@H]1OCc1ccccc1` [Compound 38]: the IC50 was found to be 2.6 µM.

For the compound `O=C(Cn1nc(C(=O)O)cc1OCc1ccccc1-c1ccc(Cl)cc1)N[C@H]1CCCC[C@@H]1OCc1ccccc1` [Compound 10], the IC50 is 0.064 µM.

For the compound `O=C(Cn1nc(C(=O)O)cc1OCc1ccccc1-c1ccccc1Cl)N[C@H]1CCCC[C@@H]1OCc1ccccc1` [Compound 54], the IC50 is 2.6 µM.

The compound `O=C(Cn1nc(C(=O)O)cc1OCc1ccccc1-c1ccccc1)Nc1ccccc1OCc1ccccc1` [Compound 7] registered an IC50 of 11 µM.

The compound `O=C(Cn1nc(C(=O)O)cc1OCc1ccc(C(F)(F)F)cc1)N[C@H]1CCCC[C@@H]1OCc1ccccc1` [Compound 19] had an IC50 of 0.62 µM.

Take `O=C(Cn1nc(C(=O)O)cc1OCc1cccc(Cl)c1)N[C@H]1CCCC[C@@H]1OCc1ccccc1` [Compound 27]: the half-inhibitory concentration (IC50) came to 8.6 µM.

Turning to `O=C(Cn1nc(C(=O)O)cc1OCc1ccccc1Cl)N[C@H]1CCCC[C@@H]1OCc1ccccc1` [Compound 13], the IC50 was greater than 12.5 µM.

Compound `O=C(Cn1nc(C(=O)O)cc1OCc1c(F)cccc1F)N[C@H]1CCCC[C@@H]1OCc1ccccc1` [Compound 26] gave an IC50 greater than 50 µM.

`O=C(Cn1nc(C(=O)O)cc1OCc1ccc(C(F)(F)F)c(F)c1)N[C@H]1CCCC[C@@H]1OCc1ccccc1` [Compound 32]: it took 0.28 µM to reach half-maximal inhibition (IC50).

As for `O=C(Cn1nc(C(=O)O)cc1OCc1cc(Cl)ccc1F)N[C@H]1CCCC[C@@H]1OCc1ccccc1` [Compound 41], the IC50 is 7.8 µM.

As to `O=C(Cn1nc(C(=O)O)cc1OCc1ccccc1)N[C@H]1CCCC[C@@H]1OCc1ccccc1` [Compound 1], it took 43 µM to reach half-maximal inhibition (IC50).

`O=C(Cn1nc(C(=O)O)cc1OCc1ccccc1-c1ccsc1)N[C@H]1CCCC[C@@H]1OCc1ccccc1` [Compound 58, 1-[(2-benzyloxy-cyclohexylcarbamoyl)-methyl]-5-(2-thiophen-3-yl-benzyloxy)-1H-pyrazole-3-carboxylic acid] had an IC50 of 0.75 µM.

For `COc1cccc(-c2ccccc2COc2cc(C(=O)O)nn2CC(=O)N[C@H]2CCCC[C@@H]2OCc2ccccc2)c1` [Compound 49], the IC50 came out at 3.6 µM.

`COc1cccc(COc2cc(C(=O)O)nn2CC(=O)N[C@H]2CCCC[C@@H]2OCc2ccccc2)c1` [Compound 47]: the IC50 is greater than 50 µM.

`Nc1nc2ccc(CNC(=O)Cn3nc(C(=O)O)cc3OCc3ccccc3-c3ccc(C(F)(F)F)cc3)cc2s1` [Compound 62] registered an IC50 greater than 12.5 µM.

`Cc1cccc(COc2cc(C(=O)O)nn2CC(=O)N[C@H]2CCCC[C@@H]2OCc2ccccc2)c1F` [Compound 16] came in with an IC50 of 8.4 µM.

Consider `O=C(Cn1nc(C(=O)O)cc1OCc1ccccc1CS(=O)(=O)c1ccccc1)Nc1ccccc1OCc1ccccc1` [Compound 8], for which inhibition was half-maximal at 0.8 µM (IC50).

`O=C(Cn1nc(C(=O)O)cc1OCc1cc(F)ccc1C(F)(F)F)N[C@H]1CCCC[C@@H]1OCc1ccccc1` [Compound 33] yielded an IC50 of 2.9 µM.

With `O=C(Cn1nc(C(=O)O)cc1OCc1ccsc1)N[C@H]1CCCC[C@@H]1OCc1ccccc1` [Compound 64], the IC50 was greater than 12.5 µM.

For `O=C(Cn1nc(C(=O)O)cc1OCc1ccc(F)c(C(F)(F)F)c1)N[C@H]1CCCC[C@@H]1OCc1ccccc1` [Compound 31], the concentration for half-maximal inhibition (IC50) was 1.4 µM.

Turning to `O=C(Cn1nc(C(=O)O)cc1OCc1cccc(C(F)(F)F)c1)N[C@H]1CCCC[C@@H]1OCc1ccccc1` [Compound 18], the concentration for half-maximal inhibition (IC50) is 2.1 µM.

`O=C(Cn1nc(C(=O)O)cc1OCc1ccc(Cl)cc1)N[C@H]1CCCC[C@@H]1OCc1ccccc1` [Compound 15]: the IC50 was found to be 2.4 µM.

With `CC(C)COc1cc(C(=O)O)nn1CC(=O)N[C@H]1CCCC[C@@H]1OCc1ccccc1` [Compound 60], the IC50 is greater than 50 µM.

As for `CS(=O)(=O)c1ccc(-c2ccccc2COc2cc(C(=O)O)nn2CC(=O)N[C@H]2CCCC[C@@H]2OCc2ccccc2)cc1` [Compound 52], 9.2 µM corresponded to half-maximal inhibition (IC50).

Compound `O=C(Cn1nc(C(=O)O)cc1OCc1ccccc1-c1cccc(C(=O)O)c1)N[C@H]1CCCC[C@@H]1OCc1ccccc1` [Compound 55] gave an IC50 greater than 12.5 µM.

`CS(=O)(=O)c1cccc(-c2ccccc2COc2cc(C(=O)O)nn2CC(=O)N[C@H]2CCCC[C@@H]2OCc2ccccc2)c1` [Compound 51] returned an IC50 of 22 µM.

Take `O=C(Cn1nc(C(=O)O)cc1OCc1cccc(C(F)(F)F)c1F)N[C@H]1CCCC[C@@H]1OCc1ccccc1` [Compound 30]: the IC50 was 2 µM.

`O=C(Cn1nc(C(=O)O)cc1OCc1ccccc1)Nc1ccccc1OCc1ccccc1` [Compound 5] showed an IC50 of 11 µM.

`O=C(Cn1nc(C(=O)O)cc1OCc1ccccc1CS(=O)(=O)c1ccccc1)N[C@H]1CCCC[C@@H]1OCc1ccccc1` [Compound 4]: the midpoint of inhibition, the IC50, lay at 32 µM.

For `O=C(Cn1nc(C(=O)O)cc1OCc1ccccc1-c1cccs1)N[C@H]1CCCC[C@@H]1OCc1ccccc1` [Compound 57], the IC50 turned out to be 2.1 µM.

With `O=C(Cn1nc(C(=O)O)cc1OCc1cc(F)cc(F)c1)N[C@H]1CCCC[C@@H]1OCc1ccccc1` [Compound 23], the IC50 amounted to 12 µM.

The compound `CC(C)(C)COc1cc(C(=O)O)nn1CC(=O)N[C@H]1CCCC[C@@H]1OCc1ccccc1` [Compound 59] registered a concentration for half-maximal inhibition (IC50) greater than 12.5 µM.

In turn, `CCOc1ccccc1COc1cc(C(=O)O)nn1CC(=O)N[C@H]1CCCC[C@@H]1OCc1ccccc1` [Compound 2] returned an IC50 of 1 µM.

`O=C(Cn1nc(C(=O)O)cc1OCc1cc(F)cc(C(F)(F)F)c1)N[C@H]1CCCC[C@@H]1OCc1ccccc1` [Compound 11, 1-[((1S, 2S)-2-Benzyloxy-cyclohexylcarbamoyl)-methyl]-5-(3-fluoro-5-trifluoromethyl-benzyloxy)-1H-pyrazole-3-carboxylic acid] came in with an IC50 of 1.8 µM.

In the case of `O=C(Cn1nc(C(=O)O)cc1OCc1cccc(Cl)c1F)N[C@H]1CCCC[C@@H]1OCc1ccccc1` [Compound 35], 9.2 µM corresponded to half-maximal inhibition (IC50).

Take `O=C(Cn1nc(-c2nnn[nH]2)cc1OCc1ccccc1-c1ccc(C(F)(F)F)cc1)N[C@H]1CCCC[C@@H]1OCc1ccccc1` [Compound 66, N-(2-benzyloxy-cyclohexyl)-2-[3-(1H-tetrazol-5-yl)-5-(4′-trifluoromethyl-biphenyl-2-ylmethoxy)-pyrazol-1-yl]-acetamide]: the midpoint of inhibition, the IC50, lay at 0.057 µM.

Compound `O=C(Cn1nc(C(=O)O)cc1OCc1cc(Cl)ccc1Cl)N[C@H]1CCCC[C@@H]1OCc1ccccc1` [Compound 12] displayed a concentration for half-maximal inhibition (IC50) of 3.9 µM.

In turn, `O=C(Cn1nc(C(=O)O)cc1OCc1ccccc1-c1ccc(C(F)(F)F)cc1)NCCCc1ccccc1` [Compound 63] gave an IC50 of 12 µM.

`O=C(Cn1nc(C(=O)O)cc1OCc1cccnc1)N[C@H]1CCCC[C@@H]1OCc1ccccc1` [Compound 65, 1-[(2-benzyloxy-cyclohexylcarbamoyl)-methyl]-5-(pyridin-3-ylmethoxy)-1H-pyrazole-3-carboxylic acid] registered an IC50 greater than 12.5 µM.

`COc1ccc(-c2ccccc2COc2cc(C(=O)O)nn2CC(=O)N[C@H]2CCCC[C@@H]2OCc2ccccc2)cc1` [Compound 50, 1-[(2-benzyloxy-cyclohexylcarbamoyl)-methyl]-5-(4′-methoxy-biphenyl-2-ylmethoxy)-1H-pyrazole-3-carboxylic acid] gave an IC50 of 0.38 µM.

The values are drawn from patent publication US7115749B2, “Substituted 5-oxo pyrazoles and [1,2,4]triazoles as antiviral agents” (priority 2004, dated 2006).
